In one assay the target is Ephrin type-A receptor 4 (Homo sapiens, UniProt P54764). As to the kind of experiment: Selectivity interaction (Upstate Kinase Profiler service (Millipore)) EUB0000056c EPHA4. The conditions noted are these: at 1 µM.
The target of assay [1] is Mitogen-activated protein kinase 14 (Homo sapiens, UniProt Q16539). As to the kind of experiment: Selectivity interaction (ProQinase) EUB0000171b MAPK14.
For assay [2], the target named is Tyrosine-protein kinase JAK2 (Homo sapiens, UniProt O60674). The conditions noted are these: at 10 µM.
Assay [3] addresses Serine/threonine-protein kinase Nek7 (Homo sapiens) (UniProt Q8TDX7). The conditions noted are these: at 10 µM.
In assay [4] the target is T1, Muscarinic acetylcholine receptor M1 (Homo sapiens) (UniProt P11229).
T1 sequence (whole entry): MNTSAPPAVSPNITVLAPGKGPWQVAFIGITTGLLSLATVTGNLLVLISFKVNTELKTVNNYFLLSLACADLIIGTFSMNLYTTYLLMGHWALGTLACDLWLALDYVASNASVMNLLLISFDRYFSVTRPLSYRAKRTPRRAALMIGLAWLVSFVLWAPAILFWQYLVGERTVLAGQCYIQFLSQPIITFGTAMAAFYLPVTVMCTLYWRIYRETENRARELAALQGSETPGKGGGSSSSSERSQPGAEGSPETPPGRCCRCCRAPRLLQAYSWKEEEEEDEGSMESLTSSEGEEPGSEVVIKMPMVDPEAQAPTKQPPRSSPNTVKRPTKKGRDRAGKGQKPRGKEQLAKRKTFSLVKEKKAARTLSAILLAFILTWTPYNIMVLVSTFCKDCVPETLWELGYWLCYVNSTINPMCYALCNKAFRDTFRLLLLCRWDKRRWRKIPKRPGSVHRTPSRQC
As to the kind of experiment: Selectivity interaction (Panel of kinases, GPCRs, ion channels and transporters (enzymatic assay)) EUB0000223bCl CHRM1.

In assay [5] the target is STE20/SPS1-related proline-alanine-rich protein kinase (Homo sapiens) (UniProt Q9UEW8). Briefly: Selectivity interaction (KinomeScan (DiscoverX)) EUB0000695a STK39. The conditions noted are these: at 100 nM.
Assay [6] concerns the target T2, Serine/threonine-protein kinase 17A (Homo sapiens) (UniProt Q9UEE5).
T2 sequence (whole entry): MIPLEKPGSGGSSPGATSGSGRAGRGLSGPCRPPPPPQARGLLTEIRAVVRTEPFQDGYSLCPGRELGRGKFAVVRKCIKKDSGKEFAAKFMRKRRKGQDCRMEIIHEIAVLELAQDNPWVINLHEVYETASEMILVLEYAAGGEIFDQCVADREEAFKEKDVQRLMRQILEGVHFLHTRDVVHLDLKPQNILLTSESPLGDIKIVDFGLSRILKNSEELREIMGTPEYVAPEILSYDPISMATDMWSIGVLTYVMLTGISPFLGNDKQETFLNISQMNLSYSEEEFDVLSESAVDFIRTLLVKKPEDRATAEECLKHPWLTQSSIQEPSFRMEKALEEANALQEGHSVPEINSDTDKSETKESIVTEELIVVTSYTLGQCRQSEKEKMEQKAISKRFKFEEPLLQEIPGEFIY
Briefly: Selectivity interaction (KinomeScan (DiscoverX)) EUB0000045b STK17A.

The target in assay [7] is Atypical kinase COQ8A, mitochondrial (Homo sapiens, UniProt Q8NI60). As to the kind of experiment: Selectivity interaction (LanthaScreen Eu Kinase Binding Assay) EUB0001632a ADCK3. The conditions noted are these: at 10 µM. In general terms: In TR-FRET formats the signal depends on donor and acceptor labels being close together.
The target of assay [8] is Ephrin type-A receptor 7 (Homo sapiens) (UniProt Q15375). Briefly: Selectivity interaction (ActivX KiNativ screen (kinase selectivity in THP-1 cell lysates)) EUB0000639a EPHA7. The conditions noted are these: lysate. Type of assay: subcellular.
For assay [9], the target named is T3, Ephrin type-B receptor 2 (Homo sapiens) (UniProt P29323).
T3 sequence (whole entry): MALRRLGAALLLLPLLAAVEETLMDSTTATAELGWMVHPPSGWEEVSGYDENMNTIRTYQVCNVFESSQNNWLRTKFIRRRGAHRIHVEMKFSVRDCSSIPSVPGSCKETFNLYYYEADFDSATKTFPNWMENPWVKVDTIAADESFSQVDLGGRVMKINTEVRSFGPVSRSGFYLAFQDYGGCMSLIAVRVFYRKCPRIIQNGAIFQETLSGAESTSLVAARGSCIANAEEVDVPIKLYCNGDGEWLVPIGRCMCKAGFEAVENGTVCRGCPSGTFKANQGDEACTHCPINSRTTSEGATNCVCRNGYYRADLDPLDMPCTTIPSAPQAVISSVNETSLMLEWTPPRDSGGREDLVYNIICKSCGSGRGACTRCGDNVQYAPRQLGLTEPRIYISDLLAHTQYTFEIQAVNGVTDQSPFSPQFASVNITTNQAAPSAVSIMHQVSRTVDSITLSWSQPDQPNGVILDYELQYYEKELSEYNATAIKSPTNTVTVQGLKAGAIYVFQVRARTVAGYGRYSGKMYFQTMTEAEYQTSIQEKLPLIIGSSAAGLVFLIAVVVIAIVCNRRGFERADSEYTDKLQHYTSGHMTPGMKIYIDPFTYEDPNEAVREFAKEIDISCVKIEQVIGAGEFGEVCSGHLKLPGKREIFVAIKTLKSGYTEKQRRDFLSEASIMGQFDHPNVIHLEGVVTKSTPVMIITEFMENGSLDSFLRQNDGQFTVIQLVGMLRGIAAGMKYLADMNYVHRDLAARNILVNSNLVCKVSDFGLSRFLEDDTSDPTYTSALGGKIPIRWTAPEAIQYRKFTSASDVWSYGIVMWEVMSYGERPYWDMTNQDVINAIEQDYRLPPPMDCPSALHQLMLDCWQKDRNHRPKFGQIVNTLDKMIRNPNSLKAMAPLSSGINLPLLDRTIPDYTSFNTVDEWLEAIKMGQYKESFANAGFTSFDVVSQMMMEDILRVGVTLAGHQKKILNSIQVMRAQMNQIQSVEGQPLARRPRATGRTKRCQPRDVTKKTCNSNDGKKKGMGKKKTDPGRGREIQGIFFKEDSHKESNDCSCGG
Briefly: Selectivity interaction (Kinase panel (Invitrogen)) EUB0000639a EPHB2. The conditions noted are these: at 200 nM.

Assay [10] addresses Phosphatidylinositol 4-kinase beta (Homo sapiens, UniProt Q9UBF8). Briefly: Selectivity interaction (ActivX KiNativ screen (kinase selectivity in THP-1 cell lysates)) EUB0000639a PI4KB. The conditions noted are these: lysate, at 0.01 µM. Type of assay: subcellular.
Assay [11] has as its target Calcium/calmodulin-dependent protein kinase type II subunit gamma (Homo sapiens) (UniProt Q13555). As to the kind of experiment: Selectivity interaction (KinomeScan (DiscoverX)) EUB0000595a CAMK2G. The conditions noted are these: at 10 µM.
In assay [12] the target is Mitogen-activated protein kinase 8 (Homo sapiens, UniProt P45983). Briefly: Selectivity interaction (Enzymatic assay) EUB0001199aCl MAPK8.
Assay [13] concerns the target Eukaryotic translation initiation factor 2-alpha kinase 1 (Homo sapiens) (UniProt Q9BQI3). Briefly: Selectivity interaction (KinomeScan (DiscoverX)) EUB0000618a EIF2AK1. The conditions noted are these: at 10 µM.

The text below walks through data of ChEMBL document CHEMBL5465560, “Selectivity Literature for EUbOPEN Chemogenomic Library” (2024).

Ephrin type-A receptor 7 (Homo sapiens), sequence (Q15375 28-998 limits assumed): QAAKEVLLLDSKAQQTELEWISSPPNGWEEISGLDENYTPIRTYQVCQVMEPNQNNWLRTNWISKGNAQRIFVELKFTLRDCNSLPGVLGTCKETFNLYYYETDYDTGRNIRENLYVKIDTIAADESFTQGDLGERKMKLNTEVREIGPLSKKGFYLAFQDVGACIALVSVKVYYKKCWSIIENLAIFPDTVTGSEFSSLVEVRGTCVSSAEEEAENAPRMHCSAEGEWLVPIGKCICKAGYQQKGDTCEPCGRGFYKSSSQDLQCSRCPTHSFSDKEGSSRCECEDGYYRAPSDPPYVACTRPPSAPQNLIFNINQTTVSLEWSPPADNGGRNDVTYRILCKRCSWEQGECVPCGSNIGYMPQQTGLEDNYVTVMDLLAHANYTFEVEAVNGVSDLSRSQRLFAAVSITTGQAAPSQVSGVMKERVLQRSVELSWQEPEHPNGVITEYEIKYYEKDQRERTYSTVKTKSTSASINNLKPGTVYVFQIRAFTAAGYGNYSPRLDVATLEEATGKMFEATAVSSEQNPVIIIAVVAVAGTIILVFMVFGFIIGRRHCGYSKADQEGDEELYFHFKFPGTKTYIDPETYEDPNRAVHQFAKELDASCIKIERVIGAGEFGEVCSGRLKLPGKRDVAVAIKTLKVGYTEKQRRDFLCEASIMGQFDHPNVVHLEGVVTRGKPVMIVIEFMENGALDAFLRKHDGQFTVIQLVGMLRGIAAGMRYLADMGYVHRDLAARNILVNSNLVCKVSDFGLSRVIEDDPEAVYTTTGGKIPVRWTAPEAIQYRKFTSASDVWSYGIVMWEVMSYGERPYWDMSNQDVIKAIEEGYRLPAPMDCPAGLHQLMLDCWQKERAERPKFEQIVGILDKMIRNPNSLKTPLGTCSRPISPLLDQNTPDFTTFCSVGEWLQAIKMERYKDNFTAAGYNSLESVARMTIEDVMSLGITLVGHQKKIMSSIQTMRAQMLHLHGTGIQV
Mitogen-activated protein kinase 14, sequence (Q16539 whole entry): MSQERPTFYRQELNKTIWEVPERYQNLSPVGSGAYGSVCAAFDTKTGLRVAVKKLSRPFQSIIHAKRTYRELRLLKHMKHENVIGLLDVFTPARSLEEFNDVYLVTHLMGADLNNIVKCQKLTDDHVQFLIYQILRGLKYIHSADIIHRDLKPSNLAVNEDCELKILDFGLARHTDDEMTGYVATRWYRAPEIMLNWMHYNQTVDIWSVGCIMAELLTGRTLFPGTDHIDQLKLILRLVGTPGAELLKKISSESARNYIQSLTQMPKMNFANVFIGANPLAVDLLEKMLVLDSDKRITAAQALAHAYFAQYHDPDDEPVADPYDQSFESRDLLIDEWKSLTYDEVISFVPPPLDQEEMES
Tyrosine-protein kinase JAK2, sequence (O60674 whole entry): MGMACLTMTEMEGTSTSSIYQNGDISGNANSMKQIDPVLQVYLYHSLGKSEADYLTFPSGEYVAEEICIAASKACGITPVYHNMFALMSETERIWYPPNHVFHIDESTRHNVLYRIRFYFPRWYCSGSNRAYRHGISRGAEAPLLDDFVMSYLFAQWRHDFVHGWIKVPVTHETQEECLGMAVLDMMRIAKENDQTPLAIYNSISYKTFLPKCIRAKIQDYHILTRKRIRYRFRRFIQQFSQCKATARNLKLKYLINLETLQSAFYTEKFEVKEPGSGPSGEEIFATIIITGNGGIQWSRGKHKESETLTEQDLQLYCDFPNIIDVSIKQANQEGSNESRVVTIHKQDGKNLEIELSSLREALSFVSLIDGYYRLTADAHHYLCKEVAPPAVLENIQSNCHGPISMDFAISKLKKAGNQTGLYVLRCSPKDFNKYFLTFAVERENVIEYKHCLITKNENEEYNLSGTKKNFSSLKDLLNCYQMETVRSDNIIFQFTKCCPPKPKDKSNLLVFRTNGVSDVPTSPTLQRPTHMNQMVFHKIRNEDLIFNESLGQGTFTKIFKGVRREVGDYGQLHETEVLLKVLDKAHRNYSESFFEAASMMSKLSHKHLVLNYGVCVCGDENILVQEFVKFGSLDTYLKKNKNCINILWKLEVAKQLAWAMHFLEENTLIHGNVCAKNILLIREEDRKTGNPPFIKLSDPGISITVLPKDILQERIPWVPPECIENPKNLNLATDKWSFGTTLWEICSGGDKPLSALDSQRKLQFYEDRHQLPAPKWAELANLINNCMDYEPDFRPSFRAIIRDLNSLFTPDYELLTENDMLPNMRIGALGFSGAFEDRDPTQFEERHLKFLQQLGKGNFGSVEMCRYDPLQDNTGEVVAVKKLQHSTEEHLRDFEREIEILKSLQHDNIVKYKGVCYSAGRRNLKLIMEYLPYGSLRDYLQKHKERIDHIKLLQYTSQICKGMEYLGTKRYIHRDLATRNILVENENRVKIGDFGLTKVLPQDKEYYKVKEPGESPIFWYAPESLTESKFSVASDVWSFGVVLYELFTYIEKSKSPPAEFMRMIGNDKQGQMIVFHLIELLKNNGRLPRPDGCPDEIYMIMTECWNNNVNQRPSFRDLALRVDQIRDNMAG
Mitogen-activated protein kinase 8, sequence (P45983 whole entry): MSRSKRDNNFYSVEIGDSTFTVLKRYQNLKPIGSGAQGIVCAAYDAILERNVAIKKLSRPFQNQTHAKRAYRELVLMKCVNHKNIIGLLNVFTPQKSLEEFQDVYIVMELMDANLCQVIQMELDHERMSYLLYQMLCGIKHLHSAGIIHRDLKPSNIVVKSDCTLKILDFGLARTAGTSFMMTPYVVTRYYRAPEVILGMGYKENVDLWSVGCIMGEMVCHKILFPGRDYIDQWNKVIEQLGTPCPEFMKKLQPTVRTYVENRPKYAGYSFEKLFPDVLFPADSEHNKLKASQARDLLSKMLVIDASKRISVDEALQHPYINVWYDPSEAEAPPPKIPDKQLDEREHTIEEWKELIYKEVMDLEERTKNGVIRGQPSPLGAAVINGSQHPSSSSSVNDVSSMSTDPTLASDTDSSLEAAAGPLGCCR
Eukaryotic translation initiation factor 2-alpha kinase 1 (Homo sapiens), sequence (Q9BQI3 whole entry): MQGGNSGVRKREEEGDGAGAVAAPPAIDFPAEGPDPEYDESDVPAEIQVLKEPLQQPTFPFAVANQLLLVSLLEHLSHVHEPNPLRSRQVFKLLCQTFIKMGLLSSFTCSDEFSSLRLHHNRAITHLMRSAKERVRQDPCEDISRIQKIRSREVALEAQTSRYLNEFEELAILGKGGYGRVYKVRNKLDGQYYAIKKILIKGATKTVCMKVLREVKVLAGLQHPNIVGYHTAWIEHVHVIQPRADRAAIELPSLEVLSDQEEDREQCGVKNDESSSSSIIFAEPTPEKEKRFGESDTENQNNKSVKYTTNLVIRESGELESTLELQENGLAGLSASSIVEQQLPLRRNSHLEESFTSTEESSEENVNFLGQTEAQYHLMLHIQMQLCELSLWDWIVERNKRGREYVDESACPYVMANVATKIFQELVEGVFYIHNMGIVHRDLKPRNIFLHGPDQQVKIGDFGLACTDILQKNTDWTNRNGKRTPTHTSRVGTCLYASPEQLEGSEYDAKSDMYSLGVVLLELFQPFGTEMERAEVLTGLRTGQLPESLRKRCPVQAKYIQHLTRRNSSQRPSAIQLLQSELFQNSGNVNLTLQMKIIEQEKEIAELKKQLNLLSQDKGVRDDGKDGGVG
Atypical kinase COQ8A, mitochondrial, sequence (Q8NI60 163-647 limits assumed): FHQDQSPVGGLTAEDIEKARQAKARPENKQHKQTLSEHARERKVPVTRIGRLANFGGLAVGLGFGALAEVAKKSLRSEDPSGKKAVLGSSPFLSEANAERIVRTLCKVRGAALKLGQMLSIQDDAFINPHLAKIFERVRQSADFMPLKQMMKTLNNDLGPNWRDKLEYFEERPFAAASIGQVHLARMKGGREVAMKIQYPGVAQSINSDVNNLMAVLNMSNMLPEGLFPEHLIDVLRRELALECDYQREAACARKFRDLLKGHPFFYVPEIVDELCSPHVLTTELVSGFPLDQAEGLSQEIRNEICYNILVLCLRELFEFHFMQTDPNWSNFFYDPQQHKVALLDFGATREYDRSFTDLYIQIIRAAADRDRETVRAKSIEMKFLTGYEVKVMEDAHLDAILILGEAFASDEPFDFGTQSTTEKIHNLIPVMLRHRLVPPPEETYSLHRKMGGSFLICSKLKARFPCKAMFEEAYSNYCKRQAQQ
Calcium/calmodulin-dependent protein kinase type II subunit gamma (Homo sapiens), sequence (Q13555 whole entry): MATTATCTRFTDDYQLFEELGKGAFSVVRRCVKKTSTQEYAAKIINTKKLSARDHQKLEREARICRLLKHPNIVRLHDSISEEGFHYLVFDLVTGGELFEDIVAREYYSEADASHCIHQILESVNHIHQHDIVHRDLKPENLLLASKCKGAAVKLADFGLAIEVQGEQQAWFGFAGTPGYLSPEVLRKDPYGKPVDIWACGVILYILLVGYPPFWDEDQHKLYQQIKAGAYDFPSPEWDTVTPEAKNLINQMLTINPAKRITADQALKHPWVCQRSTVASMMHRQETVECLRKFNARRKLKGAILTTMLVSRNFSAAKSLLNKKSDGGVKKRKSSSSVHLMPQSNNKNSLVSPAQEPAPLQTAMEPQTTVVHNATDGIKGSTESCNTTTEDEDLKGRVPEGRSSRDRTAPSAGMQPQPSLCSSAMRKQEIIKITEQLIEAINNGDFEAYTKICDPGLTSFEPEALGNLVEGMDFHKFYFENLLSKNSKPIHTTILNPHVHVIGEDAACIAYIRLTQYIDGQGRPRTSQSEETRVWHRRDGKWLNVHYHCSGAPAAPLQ
Serine/threonine-protein kinase Nek7 (Homo sapiens), sequence (Q8TDX7 whole entry, looked up): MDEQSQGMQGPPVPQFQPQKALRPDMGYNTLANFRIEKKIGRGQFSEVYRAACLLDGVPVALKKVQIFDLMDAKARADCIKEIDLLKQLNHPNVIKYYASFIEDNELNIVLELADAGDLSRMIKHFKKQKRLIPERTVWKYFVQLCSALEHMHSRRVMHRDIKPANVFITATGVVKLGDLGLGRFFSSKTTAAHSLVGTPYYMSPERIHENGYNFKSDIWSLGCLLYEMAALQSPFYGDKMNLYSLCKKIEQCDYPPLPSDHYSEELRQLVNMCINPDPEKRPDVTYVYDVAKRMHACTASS

As for `Cc1ccc(-c2ccc3c(ccc4sc5c(c43)NC[C@@H](C)NC5=O)n2)cn1`, the % of inhibition at Ephrin type-A receptor 4 was determined as 7%. As for `C=CC(=O)Nc1cccc(C(=O)Nc2ccc(Nc3cc(-c4[nH]c(SC)nc4C)ccn3)cc2)c1`, the results for the % of control in [1] (at 1 µM) and in assay [1] (at 5 µM) were 90% and 67%, respectively. As to `Cc1cc([C@@H](C)Nc2ccccc2C(=O)O)c2nc(N3CCOCC3)cc(=O)n2c1` [AZD-6482], the % of control in assay [2] amounted to 62%.

The compound `CCN(CC)CCCCNc1ncc2cc(-c3cc(OC)cc(OC)c3)c(NC(=O)NC(C)(C)C)nc2n1` gave a % of control in assay [3] of 100%. In assay [4], `COc1cc(C(=O)N2CC[C@@H](O)[C@@H](N)C2)cc2nc(-c3cc4ccccc4n3CC3CC3)n(C)c12` returned a pXC50 of 4.9 M. `Cc1cc(F)c(C(=O)Nc2cccc(-c3nncn3C(C)C)n2)cc1-n1cnc(C2CC2)c1` showed a % of control in assay [5] of 79%. Take `C=CC(=O)Nc1cc(-n2c(=O)ccc3cnc4ccc(-c5ccc(NS(C)(=O)=O)cc5)cc4c32)ccc1C`: the % of control in [6] (at 1 µM) and in assay [6] (at 10 µM) was 100% in each case. On to `Cn1cc(-n2cnc3c(NCc4nc5cc(Cl)c(Cl)cc5[nH]4)nc(N4CCOCC4)nc32)cn1`, for which, in assay [7], the % of inhibition worked out at 8.48%. With `CC[C@@H]1[C@H](F)C(=O)N[C@@H]1COc1nccc2cc(C(N)=O)c(OC)cc12` [ZIMLOVISERTIB], the % of inhibition was -8.6% in [8] (at 0.01 µM); 21.7% in assay [8] (at 0.04 µM); 20.8% in assay [8] (at 0.2 µM); -6.5% in [8] (at 1 µM); 20.6% in assay [8] (at 5 µM); 0.413% in assay [9]. Also, the % of inhibition in assay [10] worked out at 1.7%.

`COCC(=O)NC/C=C/c1ccc2ncnc(Nc3ccc(Oc4ccc(C)nc4)c(C)c3)c2c1` [CP-724714]: the % of control in assay [11] was 94%.

In [12], `CN1Cc2nccc(-c3cn(C)nc3-c3ccc(F)cc3)c2C1=O` showed an IC50 of 1020 nM.

The compound `O[C@H]1CC[C@H](Nc2ncc3nc(Nc4c(F)cc(F)cc4F)n([C@H]4CCOC4)c3n2)CC1` returned a % of control in assay [13] of 100%.

Usually IC50 stands for the concentration that gives 50% inhibition. Read a high IC50 as lower potency.
